Reference: patent US8946234B2, “Halogen-substituted compounds” (Bayer CropScience AG, priority 2008, dated 2015)

experiment: log P from HPLC-MS, no method note printed; assay type: physicochemical; settings: method not given

Compound	chromatographic logP
COC(=O)c1c(C(F)(F)F)c(-c2ccc(C(F)(F)F)cc2)nn1C [Methyl 1-methyl-4-(trifluoromethyl)-3-[4-(trifluoromethyl)phenyl]-1H-pyrazole-5-carboxylate]	4.14
COC(=O)c1cc(OC(F)F)nn1C [Methyl-3-(difluoromethoxy)-1-methyl-1H-pyrazole-5-carboxylate]	2.04
O=C(O)c1cnc(C(F)(F)F)nc1-c1ccccn1 [4-(Pyridin-2-yl)-2-(trifluoromethyl)pyrimidine-5-carboxylic acid]	1.5
CCOC(=O)c1c(C(F)(F)F)c(C=O)nn1C [Ethyl 3-formyl-1-methyl-4-(trifluoromethyl)-1H-pyrazole-5-carboxylate]	2.4
Cn1nc(C(F)(F)C(F)(F)F)c(C(F)(F)F)c1SCc1ccccc1 [5-(Benzylsulphanyl)-1-methyl-3-(pentafluoroethyl)-4-(trifluoromethyl)-1H-pyrazole]	5
Cn1nc(OCC(F)(F)F)c(F)c1C(=O)O [4-Fluoro-1-methyl-3-(2,2,2-trifluoroethoxy)-1H-pyrazole-5-carboxylic acid]	1.83
COC(=O)c1cc(-c2ccc(C(F)(F)F)cc2)nn1C [Methyl 1-methyl-3-[4-(trifluoromethyl)phenyl]-1H-pyrazole-5-carboxylate]	3.82
Cn1nc(C2CC2)c(Br)c1C(=O)O [4-Bromo-3-cyclopropyl-1-methyl-1H-pyrazole-5-carboxylic acid]	1.76
COC(=O)c1c(I)c(-c2ccc(C(F)(F)F)cc2)nn1C [Methyl 4-iodo-1-methyl-3-[4-(trifluoromethyl)phenyl]-1H-pyrazole-5-carboxylate]	4.23
CCOC(=O)c1c(C(F)(F)F)c(C(F)F)nn1C [Ethyl 3-(difluoromethyl)-1-methyl-4-(trifluoromethyl)-1H-pyrazole-5-carboxylate]	3.05
Cn1nc(OCC(F)(F)F)c(Br)c1C(=O)O [4-Bromo-1-methyl-3-(2,2,2-trifluoroethoxy)-1H-pyrazole-5-carboxylic acid]	2.03
Cn1nc(C(C)(C)F)c(C(F)(F)F)c1C(=O)O [3-(2-Fluoropropan-2-yl)-1-methyl-4-(trifluoromethyl)-1H-pyrazole-5-carboxylic acid]	1.43
CCOC(=O)c1c(C(F)(F)F)c(C(C)(C)F)nn1C [Ethyl 3-(2-fluoropropan-2-yl)-1-methyl-4-(trifluoromethyl)-1H-pyrazole-5-carboxylate]	3.55
CCOC(=O)c1c(C(F)(F)F)c(C(O)C2CC2)nn1C (centres unmarked) [Ethyl 3-[cyclopropyl(hydroxy)methyl]-1-methyl-4-(trifluoromethyl)-1H-pyrazole-5-carboxylate]	2.38
COC(=O)c1c(I)c(OCC(F)(F)F)nn1C [Methyl 4-iodo-1-methyl-3-(2,2,2-trifluoroethoxy)-1H-pyrazole-5-carboxylate]	3.17
Cn1nc(C(F)F)c(C(F)(F)F)c1C(=O)O [3-(Difluoromethyl)-1-methyl-4-(trifluoromethyl)-1H-pyrazole-5-carboxylic acid]	1.1
O=C(O)c1nccc(Cl)c1C(F)(F)F [4-Chloro-3-(trifluoromethyl)pyridine-2-carboxylic acid]	1.16
COC(=O)c1c(Cl)c(OC(F)F)nn1C [Methyl 4-chloro-3-(difluoromethoxy)-1-methyl-1H-pyrazole-5-carboxylate]	2.57
Cn1nc(OC(F)F)c(Br)c1C(=O)O [4-Bromo-3-(difluoromethoxy)-1-methyl-1H-pyrazole-5-carboxylic acid]	1.52
Cn1nc(OCC(F)(F)F)c(Cl)c1C(=O)O [4-Chloro-1-methyl-3-(2,2,2-trifluoroethoxy)-1H-pyrazole-5-carboxylic acid]	2
COC(=O)c1c(I)c(OC(F)F)nn1C [Methyl 3-(difluoromethoxy)-4-iodo-1-methyl-1H-pyrazole-5-carboxylate]	2.69
Cc1nc(C(N)=O)c(C(F)(F)F)c(C(F)(F)C(F)(F)F)n1 [2-Methyl-6-(pentafluoroethyl)-5-(trifluoromethyl)pyrimidine-4-carboxamide]	2.33
Cn1nc(-c2ccc(C(F)(F)F)cc2)c(C(F)(F)F)c1C(=O)O [1-Methyl-4-(trifluoromethyl)-3-[4-(trifluoromethyl)phenyl]-1H-pyrazole-5-carboxylic acid]	1.24

Compound	chromatographic logP
CCOC(=O)c1c(C(F)(F)F)c(CO)nn1C [Ethyl-3-(hydroxymethyl)-1-methyl-4-(trifluoromethyl)-1H-pyrazole-5-carboxylate]	1.74
Cn1nc(OC(F)F)c(Cl)c1C(=O)O [4-Chloro-3-(difluoromethoxy)-1-methyl-1H-pyrazole-5-carboxylic acid]	1.5
CCOC(=O)c1cnc(C(F)(F)F)nc1-c1ccccn1 [Ethyl 4-(pyridin-2-yl)-2-(trifluoromethyl)pyrimidine-5-carboxylate]	3.09
CCOC(=O)c1c(C(F)(F)F)c(C2CC2)nn1C [Ethyl 3-cyclopropyl-1-methyl-4-(trifluoromethyl)-1H-pyrazole-5-carboxylate]	3.66
O=C(O)c1sc(C(F)(F)C(F)(F)F)nc1C(F)(F)F [2-(Pentafluoroethyl)-4-(trifluoromethyl)-1,3-thiazole-5-carboxylic acid]	2.06
CCOC(=O)c1c(C(F)(F)F)c(C(C)(C)O)nn1C [Ethyl 3-(2-hydroxypropan-2-yl)-1-methyl-4-(trifluoromethyl)-1H-pyrazole-5-carboxylate]	2.33
Cn1nc(C2CC2)c(C(F)(F)F)c1C(=O)O [3-Cyclopropyl-1-methyl-4-(trifluoromethyl)-1H-pyrazole-5-carboxylic acid]	1.74
Cn1nc(OC(F)F)cc1C(=O)O [3-(Difluoromethoxy)-1-methyl-1H-pyrazole-5-carboxylic acid]	1.15
Cn1nc(OCC(F)(F)F)cc1C(=O)O [1-Methyl-3-(2,2,2-trifluoroethoxy)-1H-pyrazole-5-carboxylic acid]	1.65
COC(=O)c1c(Br)c(OCC(F)(F)F)nn1C [Methyl 4-bromo-1-methyl-3-(2,2,2-trifluoroethoxy)-1H-pyrazole-5-carboxy late]	3.14
Cn1nc(C(F)(F)C(F)(F)F)c(I)c1C(=O)O [1-Methyl-3-pentafluoroethyl-4-iodo-1H-pyrazole-5-carboxylic acid]	2.33
CCOC(=O)c1cnc(C(F)(F)C(F)(F)F)nc1C(F)(F)C(F)(F)F [Ethyl 2,4-bis(pentafluoroethyl)pyrimidine-5-carboxylate]	4.41
COC(=O)c1c(F)c(OCC(F)(F)F)nn1C [Methyl 4-fluoro-1-methyl-3-(2,2,2-trifluoroethoxy)-1H-pyrazole-5-carboxylate]	2.79
O=C(O)c1cnc(C(F)(F)C(F)(F)F)nc1C(F)(F)C(F)(F)F [2,4-Bis(pentafluoroethyl)pyrimidine-5-carboxylic acid]	2.24
CCOC(=O)c1sc(C(F)(F)C(F)(F)F)nc1C(F)(F)F [Ethyl 2-(pentafluoroethyl)-4-(trifluoromethyl)-1,3-thiazole-5-carboxylate]	4.36
COC(=O)c1c(Cl)c(OCC(F)(F)F)nn1C [Methyl 4-chloro-1-methyl-3-(2,2,2-trifluoroethoxy)-1H-pyrazole-5-carboxylate]	3.08
COC(=O)c1c(Br)c(OC(F)F)nn1C [Methyl 4-bromo-3-(difluoromethoxy)-1-methyl-1H-pyrazole-5-carboxylate]	2.62
COC(=O)c1cc(OCC(F)(F)F)nn1C [Methyl 1-methyl-3-(2,2,2-trifluoroethoxy)-1H-pyrazole-5-carboxylate]	2.61
Cn1nc(OC(F)F)c(I)c1C(=O)O [4-Iodo-3-(difluoromethoxy)-1-methyl-1H-pyrazole-5-carboxylic acid]	1.64
CCOC(=O)c1c(I)c(C2CC2)nn1C [Ethyl 3-cyclopropyl-4-iodo-1-methyl-1H-pyrazole-5-carboxylate]	3.56
Cn1nc(OCC(F)(F)F)c(I)c1C(=O)O [4-Iodo-1-methyl-3-(2,2,2-trifluoroethoxy)-1H-pyrazole-5-carboxylic acid]	2.11
Cn1nc(C(O)C2CC2)c(C(F)(F)F)c1C(=O)O (centres unmarked) [3-[Cyclopropyl(hydroxy)methyl]-1-methyl-4-(trifluoromethyl)-1H-pyrazole-5-carboxylic acid]	0.72

experiment: logP by HPLC on a C18 phase inversion column, EEC Directive 79/831 Annex V.A8, method b) (HP1100, 5-95% acetonitrile in 1.70 min); assay type: physicochemical; settings: HPLC method b)
Description: ^b) Note regarding the determination of the log P values and mass detection: The log P values given were determined in accordance with EEC Directive 79/831 Annex V.A8 by HPLC (High Performance Liquid Chromatography) on a phase inversion column (C18). HP1100; 50*4.6 Zorbax Eclipse Plus C18 1.8 micron; eluent A: acetonitrile (0.1% formic acid); eluent B: water (0.08% formic acid); linear gradient from 5% acetonitrile to 95% acetonitrile in 1.70 min, then 95% acetonitrile for a further 1.00 min; oven temperature 55° C.; flow: 2.0 ml/min. The mass detection is carried out via the mass detector Micromass ZQ2000 from Waters.

Compound	logP
Cn1nc(C(F)(F)C(F)(F)F)c(C(F)(F)F)c1C(=O)Nc1ccc(Cl)c(C(=O)NC2COC2)c1 [Ik-32]	2.76^b)
Cn1nc(C(F)(F)C(F)(F)F)c(C(F)(F)F)c1C(=O)Nc1ccc(Cl)c(C(=O)NCc2ccccc2Cl)c1 [Ik-282]	4.05^b)
